From US6887883B2, “Use of natural chrysanthone compounds having antiangiogenic activity” (Sigma-Tau Industrie Farmaceutiche Riunite S.p.A., priority 2000, dated 2005) come the findings set out here.

Read-outs that look alike come from different tables or passages of the source.

Common to all, as to type: cell-based
One assay has as its system BMEC endothelial cells. Briefly: Chemotaxis test using the Boyden chamber (BMEC migration towards bovine serum). From the text:
This test is the first screening assay for compounds with potential angiogenesis inhibiting or facilitating activity (Glaser B. M. et al, Nature, 1980; 288:483-4).
Chrysanthone A, one of the compounds to which the invention relates, was subjected to a chemotaxis test using the Boyden chamber (Werner F., Goodwin R. H. and Leonard E. J., Journal of Immunology Methods, 1980; 33:239-247).
The realisation of this in-vitro assay has entailed the development of techniques for the isolation and culture of bovine endothelial cells of both the aorta (BAEC) and the adrenal marrow (BMEC) as well as the identification of suitable reference compounds. One of the advantages of the use of the Boyden chamber for the chemotaxis test is the possibility of obtaining quantitative data. The Boyden chamber consists in an upper and a lower well separated by a polycarbonate filter with 8 μm pores. A solution containing the chemoattractant is placed in the lower well, while the cells are inserted in the upper well. After a period of incubation, the cells which have migrated across the filter in response to the chemotactic stimulus are counted on the undersurface of the membrane.
In the chemotaxis test, the chemoattractant selected was bovine serum (1% in DMEM culture medium). The BMEC endothelial cells were resuspended in DMEM with 1% bovine serum albumin (BSA) and analysed in this test for 4 hours. The chemotaxis was quantified by direct cell count under the optical microscope. The migration percentages presented in the chemotaxis table expressed as “% migration” were calculated according to the formula: (T−C/C)×100 where T=mean number (n^o) of cells migrating in the test sample, and C=mean number of cells migrating in the control.
A control consisting of cells not treated with the study compound, migrating towards the serum, was included in every chemotaxis experiment.
The mean number of cells migrating refers to the readings of 5 microscopic fields/well in 4 independent chemotaxis wells per sample.
Normally, suramin is used as the reference compound in chemotaxis tests.
(§1) This test was conducted using the procedure described in Example 1.

For assay [1], the system named is Bovine microvascular endothelial cells (BMEC). Briefly: Sulphorhodamine B (SRB) cytotoxicity test on BMEC. The note with it: for IC50: concentration corresponding to 50% of cytotoxic activity, read-out: Cytototoxicity on BMEC IC50; for Cytototoxicity on BMEC IC0: maximum non-cytotoxic concentration. The procedure: The evaluation of the intrinsic toxicity of chrysanthone A was done by comparing it with suramin using the Sulphorhodamine B (SRB) cytotoxicity test described here below.
Bovine microvascular endothelial cells (BMEC) were seeded, at a density of 3000 cells/well, on 96-well microtiter plates, in normal culture medium (200 μl/well). On the next day the study compounds were added to the wells in scalar concentrations. On the third day after seeding the medium was removed and three washings with PBS were performed. At the end of the washings, 200 μl of culture medium were added to each well and the plates were placed in an incubator at 37° C., 5% CO2 for the next 48 hours. At the end of this incubation period, the medium was removed and the cells were treated cold for 1 hour with a solution of 15% trichloroacetic acid (TCA). The wells were washed three times with distilled H2O by immersion of the plate and removal by overturning. 200 μl/well of 0.4% SRB in 1% acetic acid were added to the plates and incubated for 30 min. The wells were washed three times with 1% acetic acid, and lastly 200 μl/well of Tris 10 mM were added.
The staining of the well was quantified by spectrophotometric readout at a wavelength of 540 nm. Comparison of the values obtained in the wells containing the study compound and the controls made it possible to determine the IC50 and IC0 of the compound according to the invention, defined respectively as the concentration corresponding to 50% of cytotoxic activity (IC50) and the maximum non-cytotoxic concentration (IC0).
as §1

Another assay relates to LoVo-Dx line. Briefly: SRB cytotoxicity test on human tumour line LoVo-Dx.
The next assay concerns LoVo line. Nature of the assay: SRB cytotoxicity test on human tumour line LoVo.
In another assay the test system is Mes-Sa line. Nature of the assay: SRB cytotoxicity test on human tumour line Mes-Sa. Background: The SRB assay estimates cell density from bound dye.
A further assay concerns MCF-7 line. Briefly: SRB cytotoxicity test on human tumour line MCF-7. Conditions: MCF7, MCF-7 human tumour line.
The mark [2] stands for this setting: Bos taurus, Endothelial cell, compound at its IC0 (chrysanthone A 0.4 μM, two independent experiments; chrysanthone C 10 μM).

For the molecule `CO[C@@H]1CC(=O)c2c(cc3c(c2O)COC(C)(O)C3)[C@@H]1O` (stereo partly drawn) [Chrysanthone C], at 10 µM the inhibition with BMEC endothelial cells (setting [2]) was 54%. For the same molecule, the IC50 – broadly, the concentration that inhibits the measured activity by half – in assay [1] (Bos taurus, Endothelial cell) came out at 35 µM. In addition, the “Cytototoxicity on BMEC IC0” value in assay [1] came out at 10 µM.
For `CO[C@@H]1CC(=O)c2c(cc3cc(C)ncc3c2O)[C@@H]1O` [Chrysanthone A], the IC50 with LoVo-Dx line is 80 µM; in the assay on LoVo line, 15.8 µM; in the assay on Mes-Sa line, 7.8 µM; in the assay with MCF-7 line, 11.6 µM; in assay [1] (listed as chrysanthone A) it was 1.5 µM; in assay [1] it was 35 µM. Besides, in the assay on BMEC endothelial cells (setting [2]), the inhibition (as a rule, the share of the control response that was lost under treatment) at 0.4 µM was 44%. The “inhibition of BMEC migration” value with BMEC endothelial cells (compound at its IC0 (chrysanthone A 0.4 μM, two independent experiments; chrysanthone C 10 μM)) was 52%±2.8. Besides, the “Cytototoxicity on BMEC IC0” value in assay [1] worked out at 0.4 µM.
`Cc1ccc(C(=O)Nc2ccc(S(=O)(=O)O)c3cc(S(=O)(=O)O)cc(S(=O)(=O)O)c23)cc1NC(=O)c1cccc(NC(=O)Nc2cccc(C(=O)Nc3cc(C(=O)Nc4ccc(S(=O)(=O)O)c5cc(S(=O)(=O)O)cc(S(=O)(=O)O)c45)ccc3C)c2)c1` [Suramin, reference compound]: the “% Migration IC0” value with BMEC endothelial cells (1% bovine serum chemoattractant, 4 hours, compound at its IC0 (concentration printed in cell), (T−C/C)×100 vs untreated control) amounted to 100 μM = −58%. Moreover, the IC50 in assay [1] (Bos taurus, Endothelial cell) is greater than 500 µM. Also, the “Cytototoxicity on BMEC IC0” value in assay [1] came out at 100 µM.
